Data as given in ChEMBL document CHEMBL5154793, “Discovery of Thieno[2,3-d]pyrimidine-based KRAS G12D inhibitors as potential anticancer agents via combinatorial virtual screening” (Eur J Med Chem, 2022).
Calls of active or inactive are those of the source. No cut-off for these calls is given here.

How the values were obtained:
[1] = Toxicity in BALB/c mouse allografted with mouse CT26 cells assessed as PCT level at 40 to 60 mg/kg, ip administered once a day for 10 days (reference value: 0.226 to 6.4 %); format: organism-based; settings: in vivo, 240 h, dose 40-60 mg/kg, time 10 day
[2] = Toxicity in BALB/c mouse allografted with mouse CT26 cells assessed as eosinophil level at 40 to 60 mg/kg, ip administered once a day for 10 days (reference value: 16 to 17.3 %); format: organism-based; settings: in vivo, 240 h, dose 40-60 mg/kg, time 10 day
[3] = Toxicity in BALB/c mouse allografted with mouse CT26 cells assessed as lymphocyte level at 40 to 60 mg/kg, ip administered once a day for 10 days (reference value: 5.6 to 35.2 %); format: organism-based; settings: in vivo, 240 h, dose 40-60 mg/kg, time 10 day
[4] = test system: CT26; test: Induction of apoptosis in mouse CT26 cells assessed as late apoptotic cells at 2 uM measured after 24 hrs by PI/Annexin V staining based flow cytometric analysis (reference value: 3.21%); format: functional
[5] = test system: SW1990; test: Induction of apoptosis in human SW1990 cells assessed as early apoptotic cells at 2 uM measured after 24 hrs by PI/Annexin V staining based flow cytometric analysis (reference value: 10.7%); format: functional
[6] = test system: CT26; test: Induction of apoptosis in mouse CT26 cells assessed as necrotic cells at 8 uM measured after 24 hrs by PI/Annexin V staining based flow cytometric analysis (reference value: 0.789%); format: functional
[7] = test system: SW1990; test: Induction of apoptosis in human SW1990 cells assessed as viable cells at 4 uM measured after 24 hrs by PI/Annexin V staining based flow cytometric analysis (reference value: 82.9%); format: functional; settings: read-out: Activity
[8] = test system: HeLa; test: Antiproliferative activity against human HeLa cells harboring wild type KRAS assessed as inhibition of cell viability after 24 hrs by MTT assay; format: functional, cell-based
[9] = test system: GTPase KRas (Homo sapiens), P01116 [G12D]; test: Binding affinity to human his-tagged KRAS G12D mutant assessed as change in entropy by isothermal titration calorimetry
[10] = Toxicity in BALB/c mouse allografted with mouse CT26 cells assessed as HGB level at 40 to 60 mg/kg, ip administered once a day for 10 days (reference value: 0.319 to 108 g/L); format: organism-based; settings: in vivo, 240 h, dose 40-60 mg/kg, time 10 day
[11] = test system: SW1990; test: Induction of apoptosis in human SW1990 cells assessed as necrotic cells at 4 uM measured after 24 hrs by PI/Annexin V staining based flow cytometric analysis (reference value: 2.69%); format: functional
[12] = test system: CT26; test: In vivo inhibition of KRAS G12D mutant (unknown origin) mediated downstream signalling in mouse CT26 cells allografted in BALB/c mouse assessed as decrease in phosphorylation level of ErK in tumor tissue at 40 to 60 mg/kg, ip administered once a day for 10 days by Western blotting analysis; format: functional, organism-based; settings: dose 40-60 mg/kg, time 10.0 day
[13] = test system: CT26; test: Inhibition of KRAS G12D mutant (unknown origin) downstream signalling in mouse CT26 cells assessed as suppression of Raf phosphorylation incubated for 24 hrs by pull down based Western blotting analysis; format: cell-based; settings: dose <= 16.0 µM, DDE = dose-dependent effect
[14] = test system: GTPase KRas (Homo sapiens), P01116 [G12D]; test: Binding affinity to human his-tagged KRAS G12D mutant assessed as change in enthalpy by isothermal titration calorimetry
[15] = test system: GTPase KRas (Homo sapiens), P01116 [G12D]; test: Inhibition of KRAS G12D mutant downstream signalling in human SW1990 cells assessed as suppression of ERK phosphorylation incubated for 24 hrs by pull down based Western blotting analysis; format: cell-based; settings: dose <= 16.0 µM, DDE = dose-dependent effect
[16] = test system: CT26; test: Antitumor activity against mouse CT26 cells allografted in BALB/c mouse assessed as inhibition of tumor growth at 40 mg/kg, ip administered once a day for 10 days; format: functional; settings: CT26, 240 h, time 10 day, read-out: TGI
[17] = test system: GTPase KRas (Homo sapiens), P01116 [G12D]; test: Binding affinity to human his-tagged KRAS G12D mutant assessed as gibbs free energy change by isothermal titration calorimetry
[18] = test system: CT26; test: Antiproliferative activity against mouse CT26 cells harboring KRAS G12D mutant assessed as inhibition of cell viability after 24 hrs by MTT assay; format: functional, cell-based; settings: CT26, 24 h
[19] = test system: SW1990; test: Induction of apoptosis in human SW1990 cells assessed as viable cells at 2 uM measured after 24 hrs by PI/Annexin V staining based flow cytometric analysis (reference value: 82.9%); format: functional; settings: read-out: Activity
[20] = test system: CT26; test: Inhibition of GTP bound KRAS in mouse CT26 cells assessed as down regulation of KRAS-GTP protein level incubated for 12 hrs by Pull-Down based Western blotting analysis; format: functional, cell-based; settings: dose 10-20 µM, DDE = dose-dependent effect
[21] = test system: SW1990; test: Induction of apoptosis in human SW1990 cells assessed as early apoptotic cells at 8 uM measured after 24 hrs by PI/Annexin V staining based flow cytometric analysis (reference value: 10.7%); format: functional
[22] = test system: PANC-1; test: Antiproliferative activity against human PANC1 cells harboring KRAS G12D mutant assessed as inhibition of cell viability after 24 hrs by MTT assay; format: functional, cell-based; settings: PANC-1, 24 h
[23] = Toxicity in BALB/c mouse allografted with mouse CT26 cells assessed as WBC level at 40 to 60 mg/kg, ip administered once a day for 10 days (reference value: 3.090 to 6.730 10^9/L); format: organism-based; settings: in vivo, 240 h, dose 40-60 mg/kg, time 10 day
[24] = test system: SW1990; test: Induction of apoptosis in human SW1990 cells assessed as late apoptotic cells at 4 uM measured after 24 hrs by PI/Annexin V staining based flow cytometric analysis (reference value: 3.75%); format: functional
[25] = biological target: GTPase KRas (Homo sapiens) (UniProt P01116); test: Inhibition of wild type KRAS (unknown origin) downstream signalling in human HCT-116 cells assessed as suppression of Raf phosphorylation incubated 24 hrs by pull down based Western blotting analysis; format: cell-based; settings: dose <= 8.0 µM, DDE = dose-dependent effect
[26] = test system: SW1990; test: Induction of apoptosis in human SW1990 cells assessed as viable cells at 8 uM measured after 24 hrs by PI/Annexin V staining based flow cytometric analysis (reference value: 82.9%); format: functional; settings: read-out: Activity
[27] = test system: GTPase KRas (Homo sapiens), P01116 [G12D]; test: Inhibition of KRAS G12D mutant (unknown origin) downstream signalling in human SW1990 cells assessed as suppression of Raf phosphorylation incubated for 24 hrs by pull down based Western blotting analysis; format: cell-based; settings: dose <= 16.0 µM, DDE = dose-dependent effect
[28] = Toxicity in BALB/c mouse allografted with mouse CT26 cells assessed as RDW-CV level at 40 to 60 mg/kg, ip administered once a day for 10 days (reference value: 13.3 to 23.8 %); format: organism-based; settings: in vivo, 240 h, dose 40-60 mg/kg, time 10 day
[29] = Toxicity in BALB/c mouse allografted with mouse CT26 cells assessed as effect on kidney morphology at 40 to 60 mg/kg, ip administered once a day for 10 days by H and E staining based microscopic analysis; format: organism-based; settings: in vivo, 240 h, dose 40-60 mg/kg, time 10 day
[30] = test system: CT26; test: Induction of apoptosis in mouse CT26 cells assessed as early apoptotic cells at 4 uM measured after 24 hrs by PI/Annexin V staining based flow cytometric analysis (reference value: 11.2%); format: functional
[31] = Toxicity in BALB/c mouse allografted with mouse CT26 cells assessed as basophil level at 40 to 60 mg/kg, ip administered once a day for 10 days (reference value: 0.050 to 40.3 10^9/L); format: organism-based; settings: in vivo, 240 h, dose 40-60 mg/kg, time 10 day
[32] = test system: SW1990; test: Induction of apoptosis in human SW1990 cells assessed as late apoptotic cells at 2 uM measured after 24 hrs by PI/Annexin V staining based flow cytometric analysis (reference value: 3.75%); format: functional

Sequence of GTPase KRas (Homo sapiens), P01116 [G12D] (P01116 whole entry G12D, looked up): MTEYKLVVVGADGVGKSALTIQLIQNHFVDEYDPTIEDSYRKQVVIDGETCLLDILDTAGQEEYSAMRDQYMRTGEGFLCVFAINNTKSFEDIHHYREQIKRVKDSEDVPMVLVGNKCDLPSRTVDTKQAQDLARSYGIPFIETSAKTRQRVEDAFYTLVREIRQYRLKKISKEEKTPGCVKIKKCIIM
Sequence of GTPase KRas (Homo sapiens) (P01116 whole entry, looked up): as the sequence (P01116 whole entry G12D, looked up) above, with D12G counted along it

COc1ccc(C(F)(F)F)cc1-c1cc2c(N3CC4CCC(C3)N4)ncnc2s1
Activity [1]: 0.372% | Activity [2]: 0.2% | Activity [3]: 4.9% | Activity [4]: 4.59% | Activity [5]: 3.87% | Activity [6]: 6.61% | viability at 4 µM [7]: 47.9% | IC50 [8]: 7.4 µM | -TdeltaS [9]: 16.4 kcal/mol | Activity [10]: 0.41 g/L | Activity [11]: 8.76% | Activity [12]: Active | Activity [13]: Dde | deltaH [14]: -26.6 kcal/mol | Activity [15]: Dde | inhibition in vivo at 40 mg/kg [16]: 42% | deltaG [17]: -10.2 kcal/mol | IC50 [18]: 2 µM | viability at 2 µM [19]: 74.4% | inhibition [20]: Dde | Activity [21]: 37.1% | IC50 [22]: 2.3 µM | Activity [23]: 5.05 10^9/L | Activity [24]: 29.2% | Activity [25]: Dde | viability at 8 µM [26]: 4.26% | Activity [27]: Dde | Activity [28]: 14% | Activity [29]: Non-Toxic | Activity [30]: 36.4% | Activity [31]: 0.01 10^9/L | Activity [32]: 18.6%
